Patent US20090104335A1, “Healthy Food Product” (priority 2006, published 2009)

experiment: Effect of peptides on incorporation of cholesterol (NBD-cholesterol) into mixed micelles; settings: Table 3, effect of charge; peptides 1 mg/ml; BA-mix in PBS pH 6.5; micelles without peptide = 100%
Description: To form mixed micelles in vitro, 0.1 mM lecithin, 0.05 mM monoolein, 0.1 mM oleic acid and 80 μM cholesterol are mixed in a test tube and dried under a stream of N2. After drying, a 2 mM bile acid mix (BA-mix) in PBS pH 6.5 is added to this lipid mixture. Fluorescent labelled cholesterol (NBD-cholesterol) is used to monitor the incorporation of cholesterol into the mixed micelles.
For testing, peptides (1 mg/ml) are added to the BA-mix and then mixed with lipid-mixtures as described. The whole mixture is vortexed for 15 seconds, followed by an ultrasonic treatment in a waterbath for 30 minutes. From this mixture a sample is taken to measure total NBD-cholesterol concentration. The remaining micelle solution is centrifuged in a table-top ultracentrifuge at 50.000 g for 30 minutes at room temperature.
After centrifugation, samples from the supernatant are taken for the determination of solubilized NBD-cholesterol, which indicates the amount of cholesterol incorporated into mixed micelles. The pellet containing crystallised cholesterol is discarded. NBD-cholesterol is measured at 375/465 nm using a fluorescence plate reader.
Mixed micelle mixtures containing no peptides are used as control (100%). For each example the percentage of incorporated Cholesterol is calculated by dividing the amount of incorporated cholesterol for the tested composition by the amount of incorporated cholesterol in the control sample.

Substance	Incorporated CH (% control = 80 μM cholesterol) [% control]
DDDDDD [reference compound]	136.8
EAEWEY [reference compound]	81.3
KKKKKK	19.9
RARWRY	19.3
RRRRRR	14.8
VEWEME [reference compound]	68.4
VRWRMR	26.2

same assay, conditions: Table 4, effect of length; peptides 1 mg/ml; BA-mix in PBS pH 6.5; micelles without peptide = 100%

Substance	Incorporated CH (% control = 80 μM cholesterol) [% control]
RRRR	32.8
RRRRRR	10.3
RRRRRRRR [octa-peptide RRRRRRRR, net charge +8]	8.8
